According to patent US20250268884A1, “Deuterated Domperidone for Treating Gastroparesis” (CinDome Pharma, Inc., priority 2022, published 2025):
Read-outs that look alike come from different tables or passages of the source.

Assays:
[1] = system: adults with idiopathic or diabetic gastroparesis; experiment: PAGI-SYM questionnaire total and subscale scores, Phase 2a; type: in vivo, human
Description: Subjects were Evaluated as Follows: • Days −28 to −11: Screening procedures were performed. The ANMS GCSI-DD questionnaire was completed daily for at least 14 days prior to randomization (Day 1); • Days −10 to −3: The ANMS GCSI-DD questionnaire was completed daily. A GEBT was performed on a single day within this window, with breath samples obtained twice prior to consumption of a standardized, carbon-13 (^13C)-enriched meal and then at 45, 90, 120, 150, 180, and 240 minutes after meal consumption after an 8-hour fast. […] On Day 14 (±2 days), the PAGI-SYM and Clinical Grading Assessment questionnaires were completed prior to the final dose of study drug. • A GEBT was administered 30 minutes after study drug administration on Day 14 (±2 days). Breath samples were obtained twice prior to ^13C-enriched meal consumption and then at 45, 90, 120, 150, 180, and 240 minutes after meal consumption after an 8-hour fast. If a subject withdrew from the study prior to the Day 14 (±2 days) GEBT, attempts should have been made to perform a GEBT on the last day of study drug administration. Clinical Grading Assessment Scales were also performed.
The PAGI-SYM includes 6 subscales: heartburn/regurgitation, fullness/early satiety, nausea/vomiting, bloating, upper abdominal pain, and lower abdominal pain.

[2] = for AUC% extrap / CL/F / RAUC / RCmax / λz: Day 14 (steady state), mean
Description: The following PK parameters were calculated for deuterated domperidone from plasma concentrations (Day 1) using a noncompartmental method, if the data permitted: • Cmax determined directly from the concentration-time profile.
[formula] • λz calculated from a semi-logarithmic plot of the plasma concentration versus time curve. The parameter was calculated by linear least-squares regression analysis using points in the terminal logarithmic-linear phase; • T½ calculated as natural logarithm (2)/λz; • CL/F calculated as Dose/AUC0-∞; • Vz/F calculated as Dose/(λz×AUC0-∞); • Rcmax calculated as Cmax on Day 14/Cmax on Day 1; and • RAUC calculated as AUCtau on Day 14/AUCtau on Day 1.

[3] = system: adults with idiopathic or diabetic gastroparesis; experiment: Clinical Grading Assessment Scale / CPGAS, Day 14, Phase 2a; type: in vivo, human; conditions: Day 14, ITT; for CPGAS score, investigator, mean (SD) / CPGAS score, subject, mean (SD): scale +7 to −7
Text: For assessment of global clinical response, the following question was utilized at Day 14: “In thinking about the last 2 weeks, how would you say your stomach/gastroparesis-related problems/symptoms have been compared to the period before you started treatment on this study?” Responses were the following: improved, no change, or worsened. Subjects were asked to quantify their therapeutic response using the Clinical Patient Grading Assessment Scale. Subjects picked a number over a range (+7=completely better; 0=no change; −7=very much worse) that best answered the question.

[4] = system: cardiac repolarization (QTcF) in healthy subjects; conditions: human, in vivo
[5] = 20 mg QD, mean, Safety Population

In the case of [2H]c1c([2H])c([2H])c2c([nH]c(=O)n2CCCN2CCC(n3c(=O)[nH]c4cc(Cl)ccc43)CC2)c1[2H] [Deudomperidone, 1-{3-[4-(5-chloro-2-oxo-2,3-dihydro-1H-1,3-benzodiazol-1-yl)piperidin-1yl]propyl}-2,3-dihydro(4,5,6,7-D4)-1H-1,3-benzodiazol-2-one], the “PAGI-SYM heartburn/regurgitation subscale score, Baseline” value [1, 5] is reported as 2.68, the “PAGI-SYM heartburn/regurgitation subscale score, Change from baseline to Day 14” value [1, 5] is reported as −1.06 and the “PAGI-SYM heartburn/regurgitation subscale score, Day 14” value [1, 5] is reported as 1.62. The “PAGI-SYM heartburn/regurgitation subscale score, Percent change from baseline to Day 14” value [1, 5] was −34.56%, the “PAGI-SYM lower abdominal pain subscale score, Baseline” value [1, 5] was 1.93 and the “PAGI-SYM lower abdominal pain subscale score, Change from baseline to Day 14” value [1, 5] was −0.40. The “PAGI-SYM lower abdominal pain subscale score, Day 14” value [1, 5] was 1.53, the “PAGI-SYM lower abdominal pain subscale score, Percent change from baseline to Day 14” value [1, 5] was −10.91% and the “PAGI-SYM nausea/vomiting subscale score, Baseline” value [1, 5] was 2.49. For the same molecule, the “PAGI-SYM nausea/vomiting subscale score, Change from baseline to Day 14” value [1, 5] was −1.20, the “PAGI-SYM nausea/vomiting subscale score, Day 14” value [1, 5] was 1.29 and the “PAGI-SYM nausea/vomiting subscale score, Percent change from baseline to Day 14” value [1, 5] was −50.18%. The “PAGI-SYM total score, Baseline” value [1, 5] was 2.72, the “PAGI-SYM total score, Change from baseline to Day 14” value [1, 5] was −0.93 and the “PAGI-SYM total score, Day 14” value [1, 5] was 1.80. For the same molecule, the “PAGI-SYM total score, Percent change from baseline to Day 14” value [1, 5] was −39.03%, the “PAGI-SYM upper abdominal pain subscale score, Baseline” value [1, 5] was 2.27 and the “PAGI-SYM upper abdominal pain subscale score, Change from baseline to Day 14” value [1, 5] was −0.70. For the same molecule, the “PAGI-SYM upper abdominal pain subscale score, Day 14” value [1, 5] was 1.57, the “PAGI-SYM upper abdominal pain subscale score, Percent change from baseline to Day 14” value [1, 5] was −32.81% and the “PAGI-SYM total and subscale scores at Day 14” value ([1]; all deudomperidone treatment groups, placebo also decreased) was “decreased from baseline”. It also gave an AUC% extrap ([2]; 5 mg BID) of 11.72%, a CL/F ([2]; 5 mg BID) of 48.394 L/h and an RAUC ([2]; 5 mg BID) of 1.653. For the same molecule, the RCmax ([2]; 5 mg BID) was 1.838, the λz ([2]; 5 mg BID) was 0.0413 h⁻¹ and the AUC% extrap ([2]; 10 mg BID) was 9.31%. It also gave a CL/F ([2]; 10 mg BID) of 69.640 L/h, an RAUC ([2]; 10 mg BID) of 2.430 and an RCmax ([2]; 10 mg BID) of 2.179. For the same molecule, the λz ([2]; 10 mg BID) was 0.0454 h⁻¹, the AUC% extrap ([2]; 20 mg QD) was 8.48% and the CL/F ([2]; 20 mg QD) was 55.317 L/h. It also gave an RAUC ([2]; 20 mg QD) of 2.011, an RCmax ([2]; 20 mg QD) of 2.620 and a λz ([2]; 20 mg QD) of 0.0454 h⁻¹. The “exposure (Cmax and AUC) in patients with gastroparesis compared to that expected from healthy subjects” value ([2]; given dose level) was “approximately 2 fold”, the “Clinical Grading Assessment Scale, investigator response: Improved” value ([3]; 5 mg BID, N′ = 9) was 6 (66.7) n (%) and the “Clinical Grading Assessment Scale, investigator response: No change” value ([3]; 5 mg BID, N′ = 9) was 3 (33.3) n (%). The “Clinical Grading Assessment Scale, investigator response: Worsened” value ([3]; 5 mg BID, N′ = 9) was 0 (0.0) n (%), the “Clinical Grading Assessment Scale, subject response: Improved” value ([3]; 5 mg BID, N′ = 9) was 5 (55.6) n (%) and the “Clinical Grading Assessment Scale, subject response: No change” value ([3]; 5 mg BID, N′ = 9) was 4 (44.4) n (%). For the same molecule, the “Clinical Grading Assessment Scale, subject response: Worsened” value ([3]; 5 mg BID, N′ = 9) was 0 (0.0) n (%), the “CPGAS score, investigator, mean (SD)” value ([3]; 5 mg BID) was 2.2 (2.05) and the “CPGAS score, subject, mean (SD)” value ([3]; 5 mg BID) was 2.1 (2.26). The “Clinical Grading Assessment Scale, subject response: Improved” value ([3]; 10 mg BID, N′ = 23) was 17 (73.9) n (%), the “Clinical Grading Assessment Scale, subject response: No change” value ([3]; 10 mg BID, N′ = 23) was 5 (21.7) n (%) and the “Clinical Grading Assessment Scale, subject response: Worsened” value ([3]; 10 mg BID, N′ = 23) was 1 (4.3) n (%). The “Clinical Grading Assessment Scale, investigator response: Improved” value ([3]; 10 mg BID, N′ = 30) was 22 (73.3) n (%), the “Clinical Grading Assessment Scale, investigator response: No change” value ([3]; 10 mg BID, N′ = 30) was 8 (26.7) n (%) and the “Clinical Grading Assessment Scale, investigator response: Worsened” value ([3]; 10 mg BID, N′ = 30) was 0 (0.0) n (%). The “CPGAS score, investigator, mean (SD)” value ([3]; 10 mg BID) was 2.5 (1.98), the “CPGAS score, subject, mean (SD)” value ([3]; 10 mg BID) was 3.0 (2.70) and the “Clinical Grading Assessment Scale, subject response: Improved” value ([3]; 20 mg QD, N′ = 14) was 9 (64.3) n (%). For the same molecule, the “Clinical Grading Assessment Scale, subject response: No change” value ([3]; 20 mg QD, N′ = 14) was 5 (35.7) n (%), the “Clinical Grading Assessment Scale, subject response: Worsened” value ([3]; 20 mg QD, N′ = 14) was 0 (0.0) n (%) and the “Clinical Grading Assessment Scale, investigator response: Improved” value ([3]; 20 mg QD, N′ = 15) was 11 (73.3) n (%). The “Clinical Grading Assessment Scale, investigator response: No change” value ([3]; 20 mg QD, N′ = 15) was 4 (26.7) n (%), the “Clinical Grading Assessment Scale, investigator response: Worsened” value ([3]; 20 mg QD, N′ = 15) was 0 (0.0) n (%) and the “CPGAS score, investigator, mean (SD)” value ([3]; 20 mg QD) was 2.9 (2.26). The “CPGAS score, subject, mean (SD)” value ([3]; 20 mg QD) was 2.9 (2.62), the “estimated slope of concentration-QTc relationship, Model B” value [4] was 0.79 ms per ng/mL and the “plasma concentration up to which an effect on ΔΔQTcF exceeding 10 ms can be excluded” value [4] was roughly 92 ng/mL. For the same molecule, the “treatment effect-specific intercept, Model B” value [4] was -0.03 ms.
